Data published in patent publication US20110288154A1, “RNA Interference Mediated Inhibition of Epithelial Sodium Channel (ENaC) Gene Expression Using Short Interfering Nucleic Acid (siNA)” (MERCK & CO., INC., priority 2008, published 2011).
[invAb] = inverted abasic unit; m = 2'-O-methyl; r = 2'-OH (RNA); f = 2'-fluoro

Experiments:
[1] = test system: rSCNN1A (r ENaCα) mRNA; assay: Screening of ENaCα siNAs in Rat H-4-II-E cells (quantitative RT-PCR); assay type: cell-based; design: Percent Reduction of the r ENaCα mRNA relative to a non-targeting control siNA (NTCs) / Rat % KD (efficacy of ENaCα mRNA knockdown): concentration or dose not given beside the values; conditions: Rat H-4-II-E cells, n = 3; for Mean (rSCNN1A expression normalized to the level of rGAPDH) / Percent Reduction of the r ENaCα mRNA relative to a non-targeting control siNA (NTCs) / Avg GAPDH Expression (rGAPDH): 24 hours post-transfection; for Avg ENaCα Expression (rSCNN1A): harvested 24 hours post-transfection; for Avg GAPDH Expression (rGAPDH): housekeeping gene used for normalisation
Method: (§1) A series of probes and primers were used to detect the various mRNA transcripts of the genes of ENaCa and GAPDH in mouse, rat, and human cell lines. The assays were performed on an ABI 7500 instrument, according to the manufacturer's instructions. Within each experiment, the baseline was set in the exponential phase of the amplification curve, and based on the intersection point of the baselines with the amplification curve, a Ct value was assigned by the instrument. This Ct value was then assigned a QTY value based on the Standard Curve. The standard curve in the various experiments herein used 1 ng to 300 ng of RNA extracted from the same cell line used for the experimental transfections.
All IC50 values were calculated from the data using GraphPad Prizm software, specifically a sigmoidal, variable slope curve for simple ligand binding. Also, unless otherwise indicated, all calculations of the efficacy and potency (e.g., % knockdown) of the siNAs were done relative to a non-targeting control siNA. If reported, P-values were computed using The Students t-test, including the Welch Correction for unequal variances.
In all of the calculations of the % knock-down of mRNA, the calculation was made relative to the normalized level of expression of the gene of interest in the samples treated with the non-targeting control (NTC) unless otherwise indicated. The gene of interest expression level was divided by the level of expression of GAPDH or 36B4 (depending on the species) in each sample. The three replicates for each condition in each experiment were averaged and the standard deviation of those samples was calculated. The following formula was then used to calculate the % of knock-down of the gene of interest:
The ENaCα siNAs were designed and synthesized as described previously. The siNAs were screened in three cell lines. Human A549 cells, mouse NIH 3T3 and Rat H-4-II-E cells. The data from the screen of ENaCa siNAs in all three species is shown in Tables 3a, 3b, 4a, 4b, 5a, and 5b and a summary of the data for certain siNA molecules is presented in Table 6. Each screen was performed at 24 hrs. The decision to use this time point was based upon the degree of knockdown of the mRNA seen at that time point.

[2] = test system: ENaCα mRNA; assay: Screening of ENaCα siNAs in human A549 cells (quantitative RT-PCR); assay type: cell-based; design: Percent Reduction of the ENaCα mRNA relative to a non-targeting control siNA (NTC): concentration or dose not given beside the values; conditions: human A549 cells, n = 3; for Avg ENaCα Expression: 25 nM siNA with Lipofectamine 2000, harvested 24 hours post-transfection; for Mean (level of ENaCα expression normalized to the level of GAPDH) / Percent Reduction of the ENaCα mRNA relative to a non-targeting control siNA (NTC) / Avg GAPDH Expression: 24 hours post-transfection; for Avg GAPDH Expression: housekeeping gene used for normalisation
Method: siNA constructs (Table 1b) may be tested for efficacy in reducing ENaC RNA expression in, for example, A549 human lung carcinoma cells. A549 (human; ATCC cat# CCL-185) cells were cultured at 37° C. in the presence of 5% CO2 and grown in Ham's F12K medium with 2 mM L-glutamine adjusted to contain 1.5 g/L sodium bicarbonate and supplemented with fetal bovine serum at a final concentration of 10% and 100 U/mL penicillin. The A549 cells were plated approximately 24 hours before transfection in 96-well plates at 7,500 cells/well, 100 μl/well. After 24 hours complexes containing siNA and Lipofectamine 2000 (Invitrogen) were created as follows: a solution of Lipofectamine 2000 in OPTI-MEM was prepared containing Lipofectamine 2000 at a final concentration of 14 μg/ml. In parallel, solutions of the siNAs were prepared in OPTI-MEM at a final concentration of 150 nM. After both solutions were incubated at 20° C. for 20 minutes an equal volume of the siNA solutions and the Lipofectamine 2000 solution were added together for each of the siNAs. The resultant solution has the siNAs at a final concentration of 75 nM and Lipofectamine 2000 at a final concentration of 7 μg/ml. This solution was incubated at 20° C. for 20 minutes. After incubation 50 μl of the solution were added to each of the wells (in triplicate). The final concentration of siNA in each well was 25 nM and the final concentration of Lipofectamine 2000 in each well was 2.33 μg/ml. […] Dose response curves were determined in a similar manner with each concentration being done in triplicate and maintaining a constant amount of Lipofectamine 2000 in each transfection.
RNA was extracted from 96-well plates using the Invitek Invisorb RNA Cell HTS 96 Kit/C (Cat# 70619000) with a slightly modified protocol. The details of the protocol for isolating RNA from each plate are described as follows:
1) Aspirate media with rake 2) Add 150 ul/well Lysis buffer 3) Place on plate shaker for 1 minute 4) Place DNA binding plate on top of 0.5 ml collection plate 5) Pipette 190 ul up and down twice and add to DNA binding plate 6) Cover plate 7) Centrifuge plates 4 minutes at 4000 RPM 8) Discard DNA binding plate 9) Place the RNA binding plate on top of 2 ml collection plate 10) Add 150 ul/well of Binding Buffer R to 0.5 ml collection plate 11) Move contents of 0.5 ml collection plate to RNA binding plate 12) Let incubate for 1 minute 13) Centrifuge plates 4 minutes at 4000 RPM 14) Add 600 ul/well of Wash Buffer R1 to RNA binding plate 15) Centrifuge plates 4 minutes at 4000 RPM 16) Dump wash buffer from 2 ml collection plate 17) Add 400 ul/well of Wash Buffer R2 to RNA binding plate 18) Centrifuge plates 4 minutes at 4000 RPM 19) Add 400 ul/well of Wash Buffer R2 to RNA binding plate 20) Centrifuge plates 10 minutes at 4000 RPM 21) Dump wash buffer from 2 ml collection plate 22) Centrifuge plates 3 minutes at 4000 RPM 23) Discard 2 ml collection plate and place RNA binding plate on to microtiter plate 24) Add 100 ul/well of elution buffer to RNA binding plate 25) Incubate for 2 minutes 26) Seal plate 27) Centrifuge plates 3 minutes at 4000 RPM 28) Discard RNA binding plate 29) Cover microtiter plate for storage in −80 freezer
as §1, with “transfections. […]” for “transfections.”

Substance | Mean (rSCNN1A expression normalized to the level of rGAPDH) [1] | Percent Reduction of the r ENaCα mRNA relative to a non-targeting control siNA (NTCs) [1] [%] | Avg ENaCα Expression (rSCNN1A) [1] | Avg GAPDH Expression (rGAPDH) [1] | Avg ENaCα Expression [2] | Mean (level of ENaCα expression normalized to the level of GAPDH) [2] | Percent Reduction of the ENaCα mRNA relative to a non-targeting control siNA (NTC) [2] [%] | Avg GAPDH Expression [2]
B AccuGGGcAGccAGuGGAG TTB / CUCcAcuGGcuGcccAGGuUU (sense ACCUGGGCAGCCAGUGGAGTT; antisense CUCCACUGGCUGCCCAGGUUU; siRNA; sense: DNA at AGT, 2'-fluoro at CU, [invAb] at 5' end, 3' end, backbone not given here; antisense: sugars from the 5' end rrrfmffmmffmfffmmmfmm, backbone not given here) [Site 1748] | 0.60 | 34.7 | 26.11 | 43.45 | 80.25 | 0.61 | 7.2 | 131.14
B GGGcAGccAGuGGAGccuG TTB / CAGGcuccAcuGGcuGcccUU (sense GGGCAGCCAGUGGAGCCUGTT; antisense CAGGCUCCACUGGCUGCCCUU; siRNA; sense: DNA at AGT, 2'-fluoro at CU, [invAb] at 5' end, 3' end, backbone not given here; antisense: sugars from the 5' end rrrmffffmffmmffmfffmm, backbone not given here) [Site 1752] | 0.44 | 52.1 | 19.23 | 43.83 | 82.06 | 0.60 | 9.4 | 137.51
B GGcAGccAGuGGAGccuGu TTB / ACAGGcuccAcuGGcuGccUU (sense GGCAGCCAGUGGAGCCUGUTT; antisense ACAGGCUCCACUGGCUGCCUU; siRNA; sense: DNA at AGT, 2'-fluoro at CU, [invAb] at 5' end, 3' end, backbone not given here; antisense: sugars from the 5' end rrrmmffffmffmmffmffmm, backbone not given here) [Site 1753] | 0.59 | 35.4 | 24.59 | 41.36 | 84.05 | 0.66 | 0.6 | 128.19
B GGcuGuGccuAcAucuucu TTB / AGAAGAuGucGGcAcAGccUU (sense GGCUGUGCCUACAUCUUCUTT; antisense AGAAGAUGUCGGCACAGCCUU; siRNA; sense: DNA at AGT, 2'-fluoro at CU, [invAb] at 5' end, 3' end, backbone not given here; antisense: sugars from the 5' end rrrmmmfmffmmfmfmmffmm, backbone not given here) [Site 1387] | 0.71 | 23.3 | 24.12 | 34.37 | 46.10 | 0.43 | 34.2 | 106.19
B GcAuGAAGAcGGccuucuG TTB / CAGAAGGccGuCuucAuGcUU (chain 1 GCAUGAAGACGGCCUUCUGTT; chain 2 CAGAAGGCCGUCUUCAUGCUU; siRNA; chain 1: DNA at AGT, 2'-fluoro at CU, [invAb] at 5' end, 3' end, backbone not given here; chain 2: sugars from the 5' end rrrmmmmffmfmfffmfmfmm, backbone not given here) [Site 341] | 1.05 | 18.4 | 19.10 | 18.30 | 62.42 | 1.62 | −4.3 | 48.12
